In patent publication US11542262B2, “Phosphatidylinositol 3-kinase inhibitors” (NANJING ZHENGXIANG PHARMACEUTICALS CO., LTD., priority 2019, dated 2023):

Experiments:
PI3K gamma = target: T1, PI3K gamma (Mus musculus, UniProt Q9JHG7); experiment: Raw264.7 cell assay: phosphorylation of AKT in C5a stimulated RAW264.7 cells (AlphaLISA); assay type: cell-based; conditions: pAKT, read-out: PI3K gamma Raw264.7 cell (nM) cellular activity (IC50)
T1 construct: endogenous in cells; host or cells: RAW264.7
Description: This study aims to determine the inhibitory effect of compounds on PI3K gamma and PI3K delta in corresponding cell based assays. PI3K gamma activity was reflected by phosphorylation of AKT in C5a stimulated RAW264.7 cells, and PI3K delta activity was reflected by phosphorylation of AKT in anti-IgM stimulated Raji cells. Phosphorylation of AKT in cells was determined using AlphaLISA technology from PerkinElmer.
Raw264.7 cell assay: Prepare Passage 15 Raw264.7 cell and add 6 μL of 30K cells per well in 384-well plate by multidrop. Centrifuge at 500 RPM for 30 s and incubate for 2 hours at 37° C., 5% CO2. Add 30 nL compound by echo and incubate for 30 min at 37° C., 5% CO2. […] Add 2 μL of 5× lysis buffer by multidrop, incubate for 10 min on a plate shaker. Add 5 μL acceptor mix provided in the kit, centrifuge at 1000 RPM for 1 min. Add 5 μL donor mix provided in the kit, centrifuge at 1000 RPM for 1 min and incubate in dark for 2 hours at 25° C. Read AlphaLISA signal on Envision.
Y=Bottom+(Top−Bottom)/(1+10^((Log IC50−X)*Hill Slope)) X: Log of cpd concentration Y: Inhibition

PI3Kγ = PI3Kγ (Homo sapiens, UniProt P48736); experiment: ADP-Glo luminescent assay, enzymatic activity of PI3K gamma; assay type: biochemical; conditions: ATP 25 μM; read-out: PI3K gamma (nM) inhibitory activity (IC50)
Description: The compounds would be tested from 1 or 10 μM, 3-fold dilution for 10 doses, in duplicate.
Compound preparation: Dilute a compound to 100× of the final desired highest inhibitor concentration in reaction by 100% DMSO. Transfer 100 μl of this compound dilution to a well in a 96-well plate and serially dilute it with DMSO for a total of 10 concentrations.
Kinase reaction: Prepare a solution of PI3K in 1× kinase buffer at 2-fold the final concentration of each reagent in the assay. Control wells contain 1× kinase buffer without enzyme. Prepare substrate solution of PIP2 substrate and ATP in 1× kinase reaction buffer at 2-fold of the final concentration. Add concentration substrate solution to each well to the final concentration. Cover the assay plate, shake to mix, and incubate at room temperature for 1 hour. Add 5 μl of ADP-Glo reagent to each well to stop the reaction. […] Add 10 ul Kinase Detection Reagent to each well, shake 1 min, equilibrate for 30 min before reading on a luminescence plate reader.
Data Analysis: Convert RLU values to percent inhibition values as Percent inhibition=(max−sample RLU)/(max−min)*100. “min”—no enzyme control; “max”—DMSO control. Fit the data in XLFit excel add-in version 5.4.0.8 to obtain IC50 values. Y=Bottom+(Top−Bottom)/(1+(IC50/X)^HillSlope).

T1 sequence (Q9JHG7 whole entry): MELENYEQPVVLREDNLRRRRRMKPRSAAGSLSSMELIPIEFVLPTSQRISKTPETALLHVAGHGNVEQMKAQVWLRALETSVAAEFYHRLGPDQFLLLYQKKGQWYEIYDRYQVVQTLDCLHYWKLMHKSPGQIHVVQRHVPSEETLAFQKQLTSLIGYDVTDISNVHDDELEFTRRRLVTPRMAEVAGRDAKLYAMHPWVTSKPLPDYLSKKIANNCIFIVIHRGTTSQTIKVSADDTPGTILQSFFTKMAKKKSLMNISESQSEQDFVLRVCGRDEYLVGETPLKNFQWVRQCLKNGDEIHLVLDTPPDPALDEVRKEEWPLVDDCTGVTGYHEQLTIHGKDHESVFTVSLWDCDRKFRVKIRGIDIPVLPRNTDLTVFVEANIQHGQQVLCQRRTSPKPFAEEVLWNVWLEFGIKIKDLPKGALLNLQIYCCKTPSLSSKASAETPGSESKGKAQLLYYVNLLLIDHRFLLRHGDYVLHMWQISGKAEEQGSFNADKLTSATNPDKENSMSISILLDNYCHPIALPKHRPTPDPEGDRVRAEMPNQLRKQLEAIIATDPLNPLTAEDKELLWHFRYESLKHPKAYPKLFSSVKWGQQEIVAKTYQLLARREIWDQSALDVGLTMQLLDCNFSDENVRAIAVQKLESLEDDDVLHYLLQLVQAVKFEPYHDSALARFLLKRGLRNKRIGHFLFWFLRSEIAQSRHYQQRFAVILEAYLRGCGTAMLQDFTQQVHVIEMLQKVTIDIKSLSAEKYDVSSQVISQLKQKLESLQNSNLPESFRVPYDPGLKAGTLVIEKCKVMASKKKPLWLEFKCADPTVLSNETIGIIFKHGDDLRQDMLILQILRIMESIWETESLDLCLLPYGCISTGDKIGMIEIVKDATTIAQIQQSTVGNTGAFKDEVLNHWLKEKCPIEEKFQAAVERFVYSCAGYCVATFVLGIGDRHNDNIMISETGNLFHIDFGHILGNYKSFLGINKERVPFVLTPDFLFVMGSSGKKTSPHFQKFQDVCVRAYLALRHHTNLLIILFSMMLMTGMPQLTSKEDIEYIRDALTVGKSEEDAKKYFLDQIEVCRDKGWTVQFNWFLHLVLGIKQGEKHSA
T1 sequence (Q5SW28 whole entry partner): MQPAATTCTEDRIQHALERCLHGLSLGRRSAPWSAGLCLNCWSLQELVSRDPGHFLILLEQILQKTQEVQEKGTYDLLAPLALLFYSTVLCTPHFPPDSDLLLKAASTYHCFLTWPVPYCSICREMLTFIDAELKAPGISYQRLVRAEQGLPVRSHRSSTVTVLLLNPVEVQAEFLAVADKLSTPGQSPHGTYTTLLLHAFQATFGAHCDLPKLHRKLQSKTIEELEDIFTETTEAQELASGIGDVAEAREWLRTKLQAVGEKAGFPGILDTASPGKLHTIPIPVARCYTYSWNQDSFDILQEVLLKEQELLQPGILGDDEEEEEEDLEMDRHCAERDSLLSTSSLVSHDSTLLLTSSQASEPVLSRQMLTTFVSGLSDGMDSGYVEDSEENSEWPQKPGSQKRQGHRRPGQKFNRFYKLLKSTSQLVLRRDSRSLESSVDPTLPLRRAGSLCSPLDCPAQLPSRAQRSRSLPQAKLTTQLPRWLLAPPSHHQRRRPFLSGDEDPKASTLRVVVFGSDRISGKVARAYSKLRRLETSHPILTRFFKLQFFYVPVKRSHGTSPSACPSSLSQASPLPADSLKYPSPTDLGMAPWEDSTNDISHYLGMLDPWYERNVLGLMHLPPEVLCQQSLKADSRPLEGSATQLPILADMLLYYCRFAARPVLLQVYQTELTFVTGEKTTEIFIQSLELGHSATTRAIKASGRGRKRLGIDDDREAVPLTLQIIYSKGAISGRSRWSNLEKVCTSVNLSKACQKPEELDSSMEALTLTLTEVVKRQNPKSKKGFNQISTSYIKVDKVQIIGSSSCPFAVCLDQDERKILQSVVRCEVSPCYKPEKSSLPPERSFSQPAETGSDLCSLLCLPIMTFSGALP
Chain of PI3Kγ (P48736 whole entry, species assumed): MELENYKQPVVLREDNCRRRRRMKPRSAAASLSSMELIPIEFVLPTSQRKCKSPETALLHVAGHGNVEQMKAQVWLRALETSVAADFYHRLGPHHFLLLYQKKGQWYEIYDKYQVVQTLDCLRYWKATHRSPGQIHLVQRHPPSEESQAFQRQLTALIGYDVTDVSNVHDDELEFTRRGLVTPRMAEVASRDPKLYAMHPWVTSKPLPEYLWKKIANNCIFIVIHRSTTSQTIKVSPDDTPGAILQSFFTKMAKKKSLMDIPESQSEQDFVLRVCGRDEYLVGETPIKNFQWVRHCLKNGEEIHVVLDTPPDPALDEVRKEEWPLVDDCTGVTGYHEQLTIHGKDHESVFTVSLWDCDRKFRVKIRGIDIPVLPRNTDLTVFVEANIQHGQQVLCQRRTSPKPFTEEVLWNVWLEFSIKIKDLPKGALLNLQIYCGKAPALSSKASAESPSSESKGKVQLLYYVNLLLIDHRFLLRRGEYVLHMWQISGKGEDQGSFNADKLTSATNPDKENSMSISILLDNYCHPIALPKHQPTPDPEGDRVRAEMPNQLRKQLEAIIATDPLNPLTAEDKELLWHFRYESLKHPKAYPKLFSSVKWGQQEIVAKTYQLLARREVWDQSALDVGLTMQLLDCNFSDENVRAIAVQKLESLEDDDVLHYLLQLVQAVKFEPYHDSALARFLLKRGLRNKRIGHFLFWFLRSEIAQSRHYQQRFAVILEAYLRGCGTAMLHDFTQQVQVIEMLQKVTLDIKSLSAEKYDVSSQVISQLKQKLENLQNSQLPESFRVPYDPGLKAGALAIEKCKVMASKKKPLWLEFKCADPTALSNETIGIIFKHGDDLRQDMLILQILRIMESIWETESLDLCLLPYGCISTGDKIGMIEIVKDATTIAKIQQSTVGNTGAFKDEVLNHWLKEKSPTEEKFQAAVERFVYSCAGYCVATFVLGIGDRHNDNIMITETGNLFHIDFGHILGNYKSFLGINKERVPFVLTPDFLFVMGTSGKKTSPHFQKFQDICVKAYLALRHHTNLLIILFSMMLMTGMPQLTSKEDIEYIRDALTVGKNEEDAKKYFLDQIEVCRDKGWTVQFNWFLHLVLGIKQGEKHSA

Structure (SMILES)	IC50 (PI3K gamma)	IC50 (PI3Kγ)
CC[S@@+]([O-])c1cc(-c2sc(NC(C)=O)nc2C)cc2c1C(=O)N([C@@H](C)C1CC1)C2 (racemic) [Compound 13, N-(5-(2-((S)-1-cyclopropylethyl)-7-(ethylsulfinyl)-1-oxoisoindolin-5-yl)-4-methylthiazol-2-yl)acetamide]	22 nM	3.1 nM
CC(=O)Nc1nc(C)c(-c2cc3c(c([S+]([O-])C(C)C)c2)C(=O)N([C@@H](C)C2CC2)C3)s1 (mixture of isomers) [Compound 14, N-(5-(2-((S)-1-cyclopropylethyl)-7-(isopropylsulfinyl)-1-oxoisoindolin-5-yl)-4-methylthiazol-2-yl)acetamide]	27 nM	4.2 nM
CC(=O)Nc1nc(C)c(-c2cc3c(c([S+](C)[O-])c2)C(=O)N(C(C)(C)C)C3)s1 (racemic) [Compound 17, N-(5-(2-(tert-butyl)-7-(methylsulfinyl)-1-oxoisoindolin-5-yl)-4-methylthiazol-2-yl)acetamide]	118 nM	4.5 nM
CC(=O)Nc1nc(C(F)F)c(-c2cc3c(c([S@@+](C)[O-])c2)C(=O)N([C@@H](C)C2CC2)C3)s1 (racemic) [Compound 18, N-(5-(2-((S)-1-cyclopropylethyl)-7-(methylsulfinyl)-1-oxoisoindolin-5-yl)-4-(difluoromethyl)thiazol-2-yl)acetamide]		16 nM
CC(=O)Nc1nc(C)c(-c2cc3c(c(N4CCOCC4)n2)C(=O)N(C(C)C(F)(F)F)C3)s1 (stereo in doubt) [Compound 37, (S)-N-(4-methyl-5-(4-morpholino-3-oxo-2-(1,1,1-trifluoropropan-2-yl)-2,3-dihydro-1H-pyrrolo[3,4-c]pyridin-6-yl)thiazol-2-yl)acetamide]		9 nM
Cc1nc(NC(=O)C2CC2)sc1-c1cc2c(c(P(C)(C)=O)c1)C(=O)N([C@@H](C)C1CC1)C2 [Compound 3, (S)-N-(5-(2-(1-cyclopropylethyl)-7-(dimethylphosphoryl)-1-oxoisoindolin-5-yl)-4-methylthiazol-2-yl)cyclopropanecarboxamide]		7.7 nM
Cc1nc(NC(=O)C(C)C)sc1-c1cc2c(c(P(C)(C)=O)c1)C(=O)N([C@@H](C)C1CC1)C2 [Compound 4, (S)-N-(5-(2-(1-cyclopropylethyl)-7-(dimethylphosphoryl)-1-oxoisoindolin-5-yl)-4-methylthiazol-2-yl)isobutyramide]	1850 nM	4.5 nM
CCP(=O)(CC)c1cc(-c2sc(NC(C)=O)nc2C)cc2c1C(=O)N([C@@H](C)C1CC1)C2 [Compound 5, (S)-N-(5-(2-(1-cyclopropylethyl)-7-(diethylphosphoryl)-1-oxoisoindolin-5-yl)-4-methylthiazol-2-yl)acetamide]	307 nM	5.9 nM
CC(=O)Nc1nc(C)c(-c2ccc3c(n2)CN([C@@H](C)C2CC2)C3=O)s1 [Compound 9, (S)-N-(5-(6-(1-cyclopropylethyl)-5-oxo-6,7-dihydro-5H-pyrrolo[3,4-b]pyridin-2-yl)-4-methylthiazol-2-yl)acetamide]		22 nM
CC(=O)Nc1nc(C)c(-c2cc3c(c(N4CCCC4=O)n2)C(=O)N([C@@H](C)C2CC2)C3)s1 [Compound 25, (S)-N-(5-(2-(1-cyclopropylethyl)-3-oxo-4-(2-oxopyrrolidin-1-yl)-2,3-dihydro-M-pyrrolo[3,4-c]pyridin-6-yl)-4-methylthiazol-2-yl)acetamide]	446 nM	3.8 nM
CC(=O)Nc1nc(C)c(-c2cc3c(c(C)n2)C(=O)N([C@@H](C)C2CC2)C3)s1 [Compound 27, (S)-N-(5-(2-(1-cyclopropylethyl)-4-methyl-3-oxo-2,3-dihydro-1H-pyrrolo[3,4-c]pyridin-6-yl)-4-methylthiazol-2-yl)acetamide]	29 nM	29 nM
CC(=O)Nc1nc(C)c(-c2cc3c(c(NC(=O)N(C)C)n2)C(=O)N([C@@H](C)C2CC2)C3)s1 [Compound 28, (S)-N-(5-(2-(1-cyclopropylethyl)-4-(3,3-dimethylureido)-3-oxo-2,3-dihydro-1H-pyrrolo[3,4-c]pyridin-6-yl)-4-methylthiazol-2-yl)acetamide]	65 nM	1.5 nM
CC(=O)Nc1nc(C)c(-c2cc3c(c(C(=O)N(C)C)n2)C(=O)N([C@@H](C)C2CC2)C3)s1 [Compound 29, (S)-6-(2-acetamido-4-methylthiazol-5-yl)-2-(1-cyclopropylethyl)-N,N-dimethyl-3-oxo-2,3-dihydro-1H-pyrrolo[3,4-c]pyridine-4-carboxamide]	3240 nM	2.5 nM
CC(=O)Nc1nc(C)c(-c2cc3c(c(C(=O)O)n2)C(=O)N([C@@H](C)C2CC2)C3)s1 [Compound 30, (S)-6-(2-acetamido-4-methylthiazol-5-yl)-2-(1-cyclopropylethyl)-3-oxo-2,3-dihydro-1H-pyrrolo[3,4-c]pyridine-4-carboxylic acid]		56 nM
CC(=O)Nc1nc(C)c(-c2cc3c(c(C(N)=O)n2)C(=O)N([C@@H](C)C2CC2)C3)s1 [Compound 31, (S)-6-(2-acetamido-4-methylthiazol-5-yl)-2-(1-cyclopropylethyl)-3-oxo-2,3-dihydro-1H-pyrrolo[3,4-c]pyridine-4-carboxamide]		2.3 nM
CNC(=O)c1nc(-c2sc(NC(C)=O)nc2C)cc2c1C(=O)N([C@@H](C)C1CC1)C2 [Compound 32, (S)-6-(2-acetamido-4-methylthiazol-5-yl)-2-(1-cyclopropylethyl)-N-methyl-3-oxo-2,3-dihydro-1H-pyrrolo[3,4-c]pyridine-4-carboxamide]	208 nM	2.2 nM
CC(=O)Nc1nc(C)c(-c2cc3c(c(C(=O)N4CCOCC4)n2)C(=O)N([C@@H](C)C2CC2)C3)s1 [Compound 33, (S)-N-(5-(2-(1-cyclopropylethyl)-4-(morpholine-4-carbonyl)-3-oxo-2,3-dihydro-1H-pyrrolo[3,4-c]pyridin-6-yl)-4-methylthiazol-2-yl)acetamide]		6.5 nM
CC(=O)Nc1nc(C)c(-c2cc3c(c(N4CCNCC4)n2)C(=O)N([C@@H](C)C2CC2)C3)s1 [Compound 39, (S)-N-(5-(2-(1-cyclopropylethyl)-3-oxo-4-(piperazin-1-yl)-2,3-dihydro-1H-pyrrolo[3,4-c]pyridin-6-yl)-4-methylthiazol-2-yl)acetamide]	271 nM	3.7 nM
[2H]C([2H])([2H])Oc1nc(-c2sc(NC(C)=O)nc2C)cc2c1C(=O)N([C@@H](C)C1CC1)C2 [Compound 43, (S)-N-(5-(2-(1-cyclopropylethyl)-4-(methoxy-d3)-3-oxo-2,3-dihydro-1H-pyrrolo[3,4-c]pyridin-6-yl)-4-methylthiazol-2-yl)acetamide]		2.6 nM
CC(=O)Nc1nc(C)c(-c2cc3c(c(NC(=O)C4CC4C#N)n2)C(=O)N([C@@H](C)C2CC2)C3)s1 (stereo partly drawn) [Compound 45, N-(6-(2-acetamido-4-methylthiazol-5-yl)-2-((S)-1-cyclopropylethyl)-3-oxo-2,3-dihydro-1H-pyrrolo[3,4-c]pyridin-4-yl)-2-cyanocyclopropane-1-carboxamide]		0.8 nM
CC(=O)Nc1nc(C)c(-c2cc3c(c(N4CCC(O)C4)n2)C(=O)N([C@@H](C)C2CC2)C3)s1 (stereo partly drawn) [Compound 47, N-(5-(2-((S)-1-cyclopropylethyl)-4-(3-hydroxypyrrolidin-1-yl)-3-oxo-2,3-dihydro-1H-pyrrolo[3,4-c]pyridin-6-yl)-4-methylthiazol-2-yl)acetamide]		0.61 nM
CC(=O)Nc1nc(C)c(-c2cc3c(c(OC4CCOC4)n2)C(=O)N([C@@H](C)C2CC2)C3)s1 (stereo partly drawn) [Compound 51, N-(5-(2-((S)-1-cyclopropylethyl)-3-oxo-4-((tetrahydrofuran-3-yl)oxy)-2,3-dihydro-1H-pyrrolo[3,4-c]pyridin-6-yl)-4-methylthiazol-2-yl)acetamide]		0.65 nM
CC(=O)Nc1nc(Cl)c(-c2cc3c(c(N4CCOCC4)n2)C(=O)N([C@@H](C)C2CC2)C3)s1 [Compound 53, (S)-N-(4-chloro-5-(2-(1-cyclopropylethyl)-4-morpholino-3-oxo-2,3-dihydro-1H-pyrrolo[3,4-c]pyridin-6-yl)thiazol-2-yl)acetamide]		1.8 nM
